In DBAASP:
In brackets after ≈: the same amount, converted by molar mass. One block for each compound: values may come before it.

Key:
Assay in all cases: ≥ marks a high value that may be exact or a test limit, other limits are often not marked, values filed in µg/mL are converted to µM
Carnobacterium mobile = tested on: Carnobacterium mobile
Fusarium oxysporum = tested on: Fusarium oxysporum
Proteus vulgaris = tested on: Proteus vulgaris
[1] = tested on: Staphylococcus aureus KCTC 1621
[2] = tested on: Bacillus megaterium KCTC 1096
[3] = tested on: Pseudomonas aeruginosa KCTC 1637
[4] = tested on: Escherichia coli KCTC 1682
[5] = tested on: Bacillus subtilis KCTC 1918
[6] = tested on: Bacillus subtilis PCI 219
[7] = tested on: Staphylococcus aureus FDA 209P
[8] = tested on: Pseudomonas aeruginosa U-31
[9] = tested on: Escherichia coli NIHJ JC-2
[10] = tested on: Bacillus anthracis Sterne 34F2
Escherichia coli K91BK = tested on: Escherichia coli K91BK
[11] = tested on: Bacillus subtilis var. niger ATCC 9372
[12] = tested on: Micrococcus luteus ATCC 4698
[13] = tested on: Pseudomonas aeruginosa ATCC 27853
[14] = tested on: Bacillus subtilis ICTA-07
[15] = tested on: Yersinia enterocolitica ATCC 9610
[16] = tested on: Acinetobacter calcoaceticus ATCC 2305-5
[17] = tested on: Enterococcus faecalis WHO 14

Compound: CC(C)C[C@H](NC(=O)[C@H](CC(C)C)NC(=O)[C@H](CC(C)C)NC(=O)[C@H](CCCCN)NC(=O)[C@H](CC(C)C)NC(=O)[C@H](CC(C)C)NC(=O)[C@H](CCCCN)NC(=O)[C@H](CC(C)C)NC(=O)[C@H](Cc1c[nH]c2ccccc12)NC(=O)[C@H](CC(C)C)NC(=O)[C@H](CCCCN)NC(=O)[C@H](CC(C)C)NC(=O)[C@H](CC(C)C)NC(=O)[C@H](CC(C)C)NC(=O)[C@H](CCCCN)NC(=O)[C@H](CC(C)C)NC(=O)[C@H](CC(C)C)NC(=O)[C@@H](N)CCCCN)C(=O)O [KLLKLLLKLWLKLLKLLL]
MIC [6]: ≥ 45.4 µM | MIC [7]: ≥ 45.4 µM | MIC [8]: ≥ 45.4 µM | MIC [9]: ≥ 45.4 µM

Compound: CC(=O)N[C@@H](CCCCN)C(=O)N[C@@H](Cc1c[nH]c2ccccc12)C(=O)N[C@@H](CCCCN)C(=O)N[C@@H](CCCCN)C(=O)N[C@@H](CC(C)C)C(=O)N1CCC[C@H]1C(=O)N[C@@H](CCCCN)C(=O)N[C@@H](CCCCN)C(=O)N[C@@H](CC(C)C)C(=O)N[C@@H](CC(C)C)C(=O)N[C@@H](CCCCN)C(=O)N[C@@H](CC(C)C)C(=O)N[C@@H](CC(C)C)C(N)=O [KWKKLPKKLLKLL]
MIC [10]: ≥ 100 µM | MIC (Escherichia coli K91BK): ≥ 100 µM | MIC [11]: 8.84 µM (≈ 14.8 µg/mL)

Compound: CSCC[C@@H]1NC(=O)[C@H](Cc2c[nH]c3ccccc23)NC(=O)[C@H](C)NC(=O)[C@H](Cc2ccc(O)cc2)NC(=O)[C@@H]2CSSC[C@@H]3NC(=O)[C@H](CO)NC(=O)[C@H](Cc4ccc(O)cc4)NC(=O)[C@H](CCCCN)NC(=O)[C@@H](NC(=O)CNC(=O)[C@H](CC(=O)O)NC(=O)[C@H](CC(N)=O)NC(=O)CNC(=O)[C@@H](NC(=O)[C@H](CC(C)C)NC(=O)[C@H](Cc4ccc(O)cc4)NC(=O)CNC(=O)[C@H](CC(=O)O)NC(=O)[C@@H](N)CCCCN)C(C)C)CSSC[C@@H](C(=O)NCC(=O)N[C@@H](CCCN=C(N)N)C(N)=O)NC(=O)[C@H](CCCN=C(N)N)NC(=O)[C@H](CC(N)=O)NC(=O)[C@H]([C@@H](C)O)NC(=O)[C@H](C)NC(=O)[C@H](CCCN=C(N)N)NC(=O)[C@H](CC(N)=O)NC(=O)[C@H](Cc4c[nH]c5ccccc45)NC(=O)[C@H]([C@@H](C)O)NC(=O)[C@H](CCCCN)NC(=O)[C@H](C(C)C)NC(=O)[C@H](Cc4c[nH]c5ccccc45)NC(=O)[C@H](CC(N)=O)NC(=O)[C@@H]4CCCN4C(=O)[C@H](CCSC)NC(=O)[C@H](CO)NC(=O)[C@H](Cc4ccc(O)cc4)NC(=O)[C@@H]4CSSC[C@H](NC(=O)[C@H](CCC(=O)O)NC(=O)[C@H](CC(N)=O)NC(=O)[C@H](C)NC(=O)[C@H](CSSC[C@H](NC(=O)[C@H](C)NC1=O)C(=O)N[C@@H](Cc1ccc(O)cc1)C(=O)N4)NC(=O)[C@H](Cc1ccc(O)cc1)NC(=O)[C@H]([C@@H](C)O)NC(=O)CNC(=O)[C@@H]1CCCN1C(=O)[C@H](CCCN=C(N)N)NC(=O)[C@H]([C@@H](C)O)NC(=O)[C@H](Cc1ccccc1)NC3=O)C(=O)N[C@@H](CO)C(=O)N[C@@H](CCCN=C(N)N)C(=O)N[C@@H](C(C)C)C(=O)N[C@@H](CCCCN)C(=O)NCC(=O)N[C@@H](CCCCN)C(=O)N[C@@H](CC(=O)O)C(=O)NCC(=O)N[C@@H](Cc1ccc(O)cc1)C(=O)N2 [KDGYLVGNDGCKYSCFTRPGTYCANECSRVKGKDGYCYAWMACYCYSMPNWVKTWNRATNRCGR]
MIC [12]: 27 µM (≈ 199 µg/mL) | MIC [13]: 54 µM (≈ 398 µg/mL) | MIC [14]: 30 µM (≈ 221 µg/mL) | MIC [15]: ≥ 46 µM | MIC [16]: 27 µM (≈ 199 µg/mL) | MIC [17]: ≥ 65 µM

More lines, now with the values ahead:

MIC (Carnobacterium mobile): 0.05 µM (≈ 0.103 µg/mL) | MIC (Fusarium oxysporum): 1 µM (≈ 2.05 µg/mL)
Compound: CSCC[C@H](N)C(=O)N[C@@H](C)C(=O)N[C@@H](CO)C(=O)N[C@@H](CCCN=C(N)N)C(=O)N[C@@H](C)C(=O)N[C@@H](C)C(=O)NCC(=O)N[C@@H](CC(C)C)C(=O)N[C@@H](C)C(=O)N[C@@H](C)C(=O)N[C@@H](CCCN=C(N)N)C(=O)N[C@@H](CC(C)C)C(=O)N[C@@H](C)C(=O)N[C@@H](CCCN=C(N)N)C(=O)N[C@@H](CC(C)C)C(=O)N[C@@H](C)C(=O)N[C@@H](CC(C)C)C(=O)N[C@@H](CCCN=C(N)N)C(=O)N[C@@H](C)C(=O)N[C@@H](CC(C)C)C(=O)O [MASRAAGLAARLARLALRAL]

MIC (Proteus vulgaris): 12.5 µM (≈ 22.8 µg/mL) | MIC [1]: 3.12 µM (≈ 5.7 µg/mL) | MIC [2]: 1.56 µM (≈ 2.85 µg/mL) | MIC [3]: 3.12 µM (≈ 5.7 µg/mL) | MIC [4]: 6.25 µM (≈ 11.4 µg/mL) | MIC [5]: 0.78 µM (≈ 1.42 µg/mL)
Compound: CC[C@H](C)[C@H](NC(=O)[C@H](CCCCN)NC(=O)[C@H](CCCCN)NC(=O)[C@@H](N)Cc1c[nH]c2ccccc12)C(=O)N1CCC[C@H]1C(=O)N[C@@H](CCCCN)C(=O)N[C@@H](Cc1ccccc1)C(=O)N[C@@H](CC(C)C)C(=O)N[C@@H](Cc1cnc[nH]1)C(=O)N[C@@H](CC(C)C)C(=O)N[C@@H](CC(C)C)C(=O)N[C@@H](CCCCN)C(=O)N[C@@H](CCCCN)C(=O)N[C@@H](Cc1ccccc1)C(N)=O [WKKIPKFLHLLKKF]
